The test system of series [1] is rat pup isolation-induced ultrasonic vocalization. Kind of series: rat pup isolation-induced ultrasonic vocalization test. It is filed as in vivo. From the text: The compounds of this invention are useful as antagonists or partial agonists for the treatment of CNS and ocular disorders. […] A compound of this invention has also been assessed in an in vivo model, the rat pup isolation-induced ultrasonic vocalization test. This animal model has proven to be a sensitive and reliable method for detecting anxiolytics and antidepressants across a broad spectrum of pharmacological classes such as benzodiazepines, serotonin reuptake inhibitors, serotonin agonists and NMDA antagonists (Gardner, C.; Drug Devel. Res. 1985, 5,185-193 and Winslow, J.; Insel, T.; Psychopharmacology 1991, 105, 513-520).

For the next series, the target named is T1, human 5-HT7 receptor (Homo sapiens, UniProt P34969).
T1 construct: expressed in transfected cells; host or cells: CHO cells
Kind of series: 5-HT7 Receptor Binding Assay. The settings on record: membranes of CHO cells expressing human 5-HT7 receptor; 1 nM 3H-5-carboxamidotryptamine; 25° C., 60 minutes. Put shortly:
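Competition against 1 nM ^3H-5-carboxamidotryptamine over 0.1–1000 nM compound, 60 min, 25° C, 50 mM HEPES, 30 ug membrane protein from CHO cells expressing the human receptor. 10 uM serotonin defined non-specific binding. Bound label counted after filtration; IC50 from non-linear regression.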

Where a name gives a salt, the structure may show the parent alone. Where only a bound is given, the exact number is not on record here.

T1 sequence (P34969 whole entry): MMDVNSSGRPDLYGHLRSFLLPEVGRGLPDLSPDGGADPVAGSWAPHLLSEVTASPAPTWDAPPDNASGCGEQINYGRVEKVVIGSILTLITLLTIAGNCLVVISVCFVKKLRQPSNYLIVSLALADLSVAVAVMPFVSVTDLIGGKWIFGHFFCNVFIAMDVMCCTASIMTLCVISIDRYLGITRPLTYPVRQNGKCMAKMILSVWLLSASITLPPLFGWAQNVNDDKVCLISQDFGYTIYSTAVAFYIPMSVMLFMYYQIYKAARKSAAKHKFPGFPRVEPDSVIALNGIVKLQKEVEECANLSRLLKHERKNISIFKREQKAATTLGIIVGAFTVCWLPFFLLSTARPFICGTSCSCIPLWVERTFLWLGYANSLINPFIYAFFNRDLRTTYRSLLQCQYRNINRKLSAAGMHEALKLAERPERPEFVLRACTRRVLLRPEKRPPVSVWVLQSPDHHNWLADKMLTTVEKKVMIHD

Usually melting point stands for the temperature, or range, at which the solid turns liquid. For `C[C@H](Nc1nc(N)nc(NCCc2ccccn2)n1)c1ccc(F)cc1` (as salt: TFA) [Example 18, N^2-[(1S)-1-(4-Fluorophenyl)ethyl]-N^4-[2-(2-pyridinyl)ethyl]-1,3,5-triazine-2,4,6-triamine], the melting point was found to be 161 °C. In the case of `Cc1ccc([C@H](C)Nc2nc(N)nc(NCCOc3ccccc3)n2)cc1` [N^2-[(1S)-1-(4-Methylphenyl)ethyl]-N^4-(2-phenoxyethyl)-1,3,5-triazine-2,4,6-triamine], in series [1], the “amount of compound dosed which reduced the rat pup ultrasonic vocalization by 50% (ID50)” value came out at 23.8 mg/kg; the “locomotor activity at doses suppressing ultrasonic vocalization” value is reported as “did not suppress locomotor activity”; the “supression of rat pup ultrasonic vocalization” value is “dose dependent and significant supression of rat pup ultrasonic vocalization”.

What is called IC50 is the concentration at which inhibition is half-maximal. Lower therefore signals greater potency in that assay. Consider `Clc1ccccc1CNc1ccnc(NCCc2ccccc2)n1` [N^4-(2-Chlorophenylmethyl)-N^2-(2-phenylethyl)pyrimidine-2,4-diamine], for which the IC50 on human 5-HT7 receptor was at most 50 nM. `c1ccc(OCCNc2nccc(NCc3ccco3)n2)cc1` [Compound 4, N^4-(2-Furanylmethyl)-N^2-(2-phenoxyethyl)pyrimidine-2,4-diamine] had an IC50 on human 5-HT7 receptor of 101 to 200 nM. In the case of `C[C@H](Nc1nc(N)nc(NCCc2ccc(F)cc2)n1)c1ccccc1` [Compound 64, N^2-[2-(4-Fluorophenyl)ethyl]-N^4-[(1S)-1-phenylethyl]-1,3,5-triazine-2,4,6-triamine], on human 5-HT7 receptor, the IC50 was at most 50 nM.

Molecule `CC(Nc1nccc(NCCc2c[nH]c3ccccc23)n1)c1ccccc1` (stereo not drawn) [Compound 7, N^4-[2-(1H-Indol-3-yl)ethyl]-N^2-(1-phenylethyl)pyrimidine-2,4-diamine] gave an IC50 at human 5-HT7 receptor of 51 to 100 nM. `C[C@H](Nc1nc(N)nc(NCCc2cccc(Br)c2)n1)c1ccccc1` [Compound 66, N^2-[2-(3-Bromophenyl)ethyl]-N^4-[(1S)-1-phenylethyl]-1,3,5-triazine-2,4,6-triamine] returned an IC50 on human 5-HT7 receptor of at most 50 nM. Still for that read-out and setting: the result for `CC(Nc1ccnc(NCCCc2ccccc2)n1)c1ccccc1` (stereo not drawn) [N^4-(1-Phenylethyl)-N^2-(3-phenylpropyl)pyrimidine-2,4-diamine] reads 51 to 100 nM.

Take `C[C@H](Nc1nc(N)nc(NCCOc2ccccc2)n1)c1ccccc1` (as salt: TFA) [Compound 41, N^2-[2-(Phenoxy)ethyl]-N^4-[(1S)-1-phenylethyl]-1,3,5-triazine-2,4,6-triamine]: the melting point is 207 to 208 °C. Turning to `C[C@H](Nc1nc(N)nc(NCCNc2ccccc2)n1)c1cccc2ccccc12` [Compound 38, N^2-[(1S)-1-(1-Napthalenyl)ethyl]-N^4-[2-(phenylamino)ethyl]-1,3,5-triazine-2,4,6-triamine], on human 5-HT7 receptor, the IC50 is 101 to 200 nM.
